Assay results as given in PubChem BioAssay (NCI).
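Cultured in 96-well plates, cells were exposed to test compound for 48 hours across five concentrations. TGI is the concentration that stops growth completely.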

Experiments:
Assay in all cases: inhibition of tumour cell growth, NCI panel, 48 h
[1] = system: UACC-257 melanoma
[2] = system: SK-OV-3 ovarian
[3] = system: HL-60(TB) leukemia
[4] = system: HT29 colon
[5] = system: HS 578T breast
[6] = system: ACHN renal
[7] = system: SR leukemia
[8] = system: KM12 colon
[9] = system: IGROV1 ovarian
[10] = system: NCI-H23 lung
[11] = system: RXF 393 renal
[12] = system: MDA-MB-231 breast
[13] = system: DU-145 prostate
[14] = system: NCI-H460 lung
[15] = system: OVCAR-3 ovarian
[16] = system: HCT-15 colon
[17] = system: SF-268 CNS
[18] = system: NCI-H522 lung
[19] = system: SW-620 colon
[20] = system: BT-549 breast
[21] = system: MOLT-4 leukemia
[22] = system: SN12C renal
[23] = system: MDA-N
[24] = system: U251 CNS
[25] = system: 786-0 renal
[26] = system: CCRF-CEM leukemia
[27] = system: LOX IMVI melanoma
[28] = system: MCF7 breast
[29] = system: UO-31 renal
[30] = system: A549 NSCLC
[31] = system: OVCAR-4 ovarian
[32] = system: SNB-75 CNS
[33] = system: MALME-3M melanoma
[34] = system: OVCAR-8 ovarian
[35] = system: EKVX NSCLC
[36] = system: HCC-2998 colon
[37] = system: SF-539 CNS
[38] = system: SK-MEL-2 melanoma
[39] = system: PC-3 prostate
[40] = system: OVCAR-5 ovarian
[41] = system: T-47D breast
[42] = system: TK-10 renal
[43] = system: M14 melanoma
[44] = system: MDA-MB-435
[45] = system: SNB-19 CNS
[46] = system: NCI-H226 lung
[47] = system: HOP-92 NSCLC
[48] = system: K-562 leukemia
[49] = system: HCT-116 colon
[50] = system: SF-295 CNS
[51] = system: NCI/ADR-RES ovarian
[52] = system: SK-MEL-28 melanoma
[53] = system: SK-MEL-5 melanoma
[54] = system: CAKI-1 renal
[55] = system: RPMI-8226 leukemia
[56] = system: HOP-62 NSCLC
[57] = system: UACC-62 melanoma
[58] = system: A498 renal
[59] = system: COLO 205 colon

Structure (SMILES): CCc1cc2c(oc3cc(C)ccc32)c(=O)n1C
- TGI [1]: > 10 µM
- TGI [2]: > 10 µM
- TGI [3]: > 10 µM
- TGI [4]: > 10 µM
- TGI [5]: > 10 µM
- TGI [6]: > 10 µM
- TGI [7]: > 10 µM
- TGI [8]: > 10 µM
- TGI [9]: > 10 µM
- TGI [10]: > 10 µM
- TGI [11]: > 10 µM
- TGI [12]: > 10 µM
- TGI [13]: > 10 µM
- TGI [14]: > 10 µM
- TGI [15]: > 10 µM
- TGI [16]: > 10 µM
- TGI [17]: > 10 µM
- TGI [18]: > 10 µM
- TGI [19]: > 10 µM
- TGI [20]: > 10 µM
- TGI [21]: > 10 µM
- TGI [22]: > 10 µM
- TGI [23]: > 10 µM
- TGI [24]: > 10 µM
- TGI [25]: > 10 µM
- TGI [26]: > 10 µM
- TGI [27]: > 10 µM
- TGI [28]: > 10 µM
- TGI [29]: > 10 µM
- TGI [30]: > 10 µM
- TGI [31]: > 10 µM
- TGI [32]: > 10 µM
- TGI [33]: > 10 µM
- TGI [34]: > 10 µM
- TGI [35]: > 10 µM
- TGI [36]: > 10 µM
- TGI [37]: > 10 µM
- TGI [38]: > 10 µM
- TGI [39]: > 10 µM
- TGI [40]: > 10 µM
- TGI [41]: > 10 µM
- TGI [42]: > 10 µM
- TGI [43]: > 10 µM
- TGI [44]: > 10 µM
- TGI [45]: > 10 µM
- TGI [46]: > 10 µM
- TGI [47]: > 10 µM
- TGI [48]: > 10 µM
- TGI [49]: > 10 µM
- TGI [50]: > 10 µM

Structure (SMILES): CCc1nc(N)nc(N)c1-c1ccc(Cl)c(N=CN(C)C)c1
- TGI [1]: > 100 µM
- TGI [2]: > 100 µM
- TGI [3]: > 90.3 µM
- TGI [4]: > 100 µM
- TGI [5]: > 100 µM
- TGI [6]: > 100 µM
- TGI [7]: > 83.4 µM
- TGI [51]: > 100 µM
- TGI [8]: > 100 µM
- TGI [9]: > 100 µM
- TGI [10]: > 81.5 µM
- TGI [11]: > 100 µM
- TGI [52]: > 100 µM
- TGI [12]: > 100 µM
- TGI [13]: > 100 µM
- TGI [14]: > 95.2 µM
- TGI [15]: > 100 µM
- TGI [16]: > 100 µM
- TGI [53]: > 100 µM
- TGI [17]: > 100 µM
- TGI [18]: 62.7 µM
- TGI [19]: > 100 µM
- TGI [20]: > 100 µM
- TGI [21]: > 100 µM
- TGI [22]: > 100 µM
- TGI [23]: > 100 µM
- TGI [24]: > 100 µM
- TGI [25]: > 100 µM
- TGI [26]: 97.6 µM
- TGI [27]: > 100 µM
- TGI [28]: > 100 µM
- TGI [29]: > 100 µM
- TGI [30]: > 100 µM
- TGI [31]: > 100 µM
- TGI [32]: > 100 µM
- TGI [34]: > 100 µM
- TGI [35]: > 100 µM
- TGI [36]: > 100 µM
- TGI [37]: > 100 µM
- TGI [54]: > 100 µM
- TGI [55]: > 100 µM
- TGI [56]: > 100 µM
- TGI [38]: > 100 µM
- TGI [39]: > 100 µM
- TGI [40]: > 100 µM
- TGI [41]: > 100 µM
- TGI [42]: > 100 µM
- TGI [43]: > 100 µM
- TGI [44]: > 100 µM
- TGI [45]: > 89.3 µM
- TGI [57]: > 100 µM
- TGI [46]: > 100 µM
- TGI [47]: > 100 µM
- TGI [48]: > 100 µM
- TGI [49]: > 100 µM
- TGI [58]: > 100 µM
- TGI [59]: > 100 µM
- TGI [50]: > 100 µM

Structure (SMILES): Cc1ccc(S(=O)(=O)NNC2Oc3cc4c(cc3C(c3ccccc3O)C2C)OCO4)cc1 (stereo not drawn)
- TGI [1]: 23.3 µM
- TGI [2]: 37.9 µM
- TGI [3]: 40.8 µM
- TGI [4]: 27.6 µM
- TGI [5]: 29.5 µM
- TGI [6]: 26 µM
- TGI [7]: 33.4 µM
- TGI [8]: 26.5 µM
- TGI [9]: 27.2 µM
- TGI [10]: 33 µM
- TGI [11]: 19.3 µM
- TGI [52]: 30.1 µM
- TGI [12]: 31.4 µM
- TGI [13]: 29.2 µM
- TGI [14]: 24.5 µM
- TGI [15]: 23.7 µM
- TGI [16]: 32 µM
- TGI [53]: 27.6 µM
- TGI [17]: 28.5 µM
- TGI [18]: 27.3 µM
- TGI [19]: 29.7 µM
- TGI [20]: 27.3 µM
- TGI [21]: 42.7 µM
- TGI [22]: 30.5 µM
- TGI [23]: 27 µM
- TGI [24]: 22 µM
- TGI [26]: 34.5 µM
- TGI [27]: 32.8 µM
- TGI [28]: 35.2 µM
- TGI [29]: 23 µM
- TGI [30]: 26.8 µM
- TGI [32]: 23.3 µM
- TGI [33]: 25.9 µM
- TGI [35]: 23.8 µM
- TGI [36]: 32.6 µM
- TGI [37]: 33.3 µM
- TGI [54]: 28.9 µM
- TGI [55]: 47.1 µM
- TGI [56]: 29.6 µM
- TGI [38]: 22.8 µM
- TGI [39]: 22.8 µM
- TGI [40]: 30.5 µM
- TGI [41]: 25.6 µM
- TGI [42]: 31.3 µM
- TGI [43]: 26.2 µM
- TGI [44]: 26.8 µM
- TGI [45]: 25.6 µM
- TGI [57]: 29.8 µM
- TGI [46]: 28.3 µM
- TGI [47]: 31.7 µM
- TGI [48]: 50.2 µM
- TGI [49]: 22.1 µM
- TGI [58]: 30.7 µM
- TGI [59]: 29.5 µM
- TGI [50]: 24.4 µM
